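Interpolation was linear, between the two tested concentrations surrounding the appropriate level; five concentrations were tested over 48 hours in 96-well plates. TGI denotes the concentration required for complete inhibition of growth.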
Columns and labels:
Assay in all cases: growth of human tumour cells (NCI), 48 h
[1] = tested on: CAKI-1 renal
[2] = tested on: DMS 273 small cell lung
[3] = tested on: EKVX NSCLC
[4] = tested on: HCC-2998 colon
[5] = tested on: HCT-15 colon
[6] = tested on: HOP-92 NSCLC
[7] = tested on: HT29 colon
[8] = tested on: KM12 colon
[9] = tested on: LXFL 529 NSCLC
[10] = tested on: M19-MEL melanoma
[11] = tested on: OVCAR-3 ovarian
[12] = tested on: OVCAR-8 ovarian
[13] = tested on: RPMI-8226 leukemia
[14] = tested on: SF-268 CNS
[15] = tested on: SK-OV-3 ovarian
[16] = tested on: SN12C renal
[17] = tested on: TK-10 renal
[18] = tested on: UACC-257 melanoma
[19] = tested on: UACC-62 melanoma
[20] = tested on: XF 498 CNS

Measured: TGI

CN(C(=O)c1ccccc1)c1ccc2c(c1)C(=O)c1ccccc1C2=O
> 100 µM: [1] | [2] | [3] | [4] | [5] | [6] | [7] | [8] | [9] | [10] | [11] | [12] | [13] | [14] | [15] | [16] | [17] | [18] | [19] | [20]

Reference: PubChem BioAssay (NCI)
